Laboratory results: US10087156B2, “Methods and compositions related to retinoid receptor-selective pathway” (Sanford Burnham Prebys Medical Discovery Institute, priority 2010, dated 2018)

How the values were obtained:
ZR-75-1 cells = assay: PARP cleavage with TNFα by immunoblotting; format: cell-based, human; details: K-80003 50 μM, Sulindac 75 μM, 6 hr
Description: ZR-75-1 cells were treated with TNFα and/or Sulindac (75 μM) or K-80003 (50 μM) for 6 hr and analyzed by immunoblotting.

MCF-7 breast tumor = MCF-7 breast tumor growth, oral administration; format: in vivo; details: mice, 15, 30, 60 mg/kg by gavage once daily, 20 days
Description: The growth inhibitory effect of oral administration of K-80003 on MCF-7 breast tumor tissue grown in mice was investigated. K-80003 was dissolved in NaHCO3 (pH 8.0). Mice with MCF-7 breast tumor tissue were administered 15 mg/kg K-80003, 30 mg/kg K-80003, 60 mg/kg K-80003, or a control in 100 ul total volume by gavage once daily.

cancer = assay: Preventing cancer in a human patient; format: in vivo; details: 150 mg tablet twice daily
Description: A human patient with an elevated risk of developing cancer relative to the general population is identified and instructed to take a 150 mg tablet containing the active ingredient K-80003 twice daily.

Nur77 = biological target: T1, Nur77 (Homo sapiens, UniProt P22736); assay: HPLC analysis of sulindac sulfide binding to receptor protein in cells; details: HEK293T cells, 100 μM, 3 hr
T1 construct: expressed in transfected cells
T1 sequence (P22736 whole entry, species assumed): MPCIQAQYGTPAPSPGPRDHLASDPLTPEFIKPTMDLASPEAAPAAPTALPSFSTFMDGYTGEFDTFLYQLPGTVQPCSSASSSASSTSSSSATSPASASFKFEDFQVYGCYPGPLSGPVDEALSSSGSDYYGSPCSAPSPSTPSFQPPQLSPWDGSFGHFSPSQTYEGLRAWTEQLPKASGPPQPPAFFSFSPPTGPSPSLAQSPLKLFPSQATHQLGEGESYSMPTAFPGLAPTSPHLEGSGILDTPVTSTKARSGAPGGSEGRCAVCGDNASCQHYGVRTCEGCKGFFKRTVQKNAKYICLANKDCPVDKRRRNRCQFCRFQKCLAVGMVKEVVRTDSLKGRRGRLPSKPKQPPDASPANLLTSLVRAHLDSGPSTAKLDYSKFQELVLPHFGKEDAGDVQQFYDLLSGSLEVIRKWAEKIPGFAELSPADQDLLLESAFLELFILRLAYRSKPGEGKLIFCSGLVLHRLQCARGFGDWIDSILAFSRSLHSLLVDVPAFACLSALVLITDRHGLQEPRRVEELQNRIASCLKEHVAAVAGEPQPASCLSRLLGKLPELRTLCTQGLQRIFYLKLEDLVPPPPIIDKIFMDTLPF
Description: (§1) Competitive ligand-binding assays (FIG. 1A) and HPLC analysis of Sulindac binding to RXRα, Nur77, or RARβ in HEK293T cells (FIG. 1B) were performed. RXRα LBD protein was incubated with [^3H]9-cis-RA in the presence or absence of Sulindac or unlabeled 9-cis-RA. Bound [^3H]9-cis-RA was quantitated by liquid scintillation counting (FIG. 1A). HEK293T cells stably expressing RXRαfused to a C-terminal TAP tag (Stratagene, La Jolla, Calif.) were treated with or without 100 μM sulindac sulfide for 3 hr. After treatment, cells were purified and analyzed by HPLC for the presence of sulindac sulfide. A standard solution of sulindac sulfide was used to obtain the calibration curve. Characteristic peak spectrum and retention time was used for identification, and peak areas at max used for quantification were calculated (FIGS. 1B and 10).
(§2) Expression vector containing receptor fused to C-terminal TAP fusion (Stratagene, La Jolla, Calif.) was transfected into HEK293 cells using FuGene 6 transfection reagent (Roche, Basel, Switzerland). The cells were maintained in exponential growth in complete medium, DMEM (Mediatech Inc., Herndon, Va.) supplemented with 10% calf serum (SCS, Hyclone Logan, Utah), 2 mM glutamine, penicillin (100 U/ml) and streptomycin (100 μg/ml). At two days post-transfection cells were switched into medium containing […] G418 until 20 days post-transfection, when dishes were scored for drug-resistant colonies. Expression of RXRα fusion protein was determined by immunoblotting. […] A standard solution of sulindac sulfide was used to obtain the calibration curve.

RARβ = biological target: T2, RARβ (Homo sapiens, UniProt P10826); assay: as above; details: HEK293T cells, 100 μM, 3 hr
T2 construct: expressed in transfected cells
T2 sequence (P10826 whole entry, species assumed): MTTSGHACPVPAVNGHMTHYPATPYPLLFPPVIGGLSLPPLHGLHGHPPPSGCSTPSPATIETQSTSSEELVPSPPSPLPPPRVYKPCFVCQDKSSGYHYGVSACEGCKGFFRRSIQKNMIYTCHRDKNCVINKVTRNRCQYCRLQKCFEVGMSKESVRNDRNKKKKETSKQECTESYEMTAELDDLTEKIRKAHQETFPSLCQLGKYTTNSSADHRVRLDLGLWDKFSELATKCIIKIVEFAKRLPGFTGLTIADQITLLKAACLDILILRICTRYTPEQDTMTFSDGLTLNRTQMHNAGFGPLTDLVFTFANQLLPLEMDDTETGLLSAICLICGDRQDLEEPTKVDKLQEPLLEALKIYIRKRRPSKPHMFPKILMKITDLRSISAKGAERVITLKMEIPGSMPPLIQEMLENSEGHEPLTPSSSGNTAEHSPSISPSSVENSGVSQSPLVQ
Description: as §1, §2

RXRα = biological target: T3, RXRα (Homo sapiens, UniProt P19793); assay: as above; details: HEK293T cells stably expressing TAP-tagged receptor, 100 μM, 3 hr
T3 construct: expressed in transfected cells
T3 sequence (P19793 whole entry): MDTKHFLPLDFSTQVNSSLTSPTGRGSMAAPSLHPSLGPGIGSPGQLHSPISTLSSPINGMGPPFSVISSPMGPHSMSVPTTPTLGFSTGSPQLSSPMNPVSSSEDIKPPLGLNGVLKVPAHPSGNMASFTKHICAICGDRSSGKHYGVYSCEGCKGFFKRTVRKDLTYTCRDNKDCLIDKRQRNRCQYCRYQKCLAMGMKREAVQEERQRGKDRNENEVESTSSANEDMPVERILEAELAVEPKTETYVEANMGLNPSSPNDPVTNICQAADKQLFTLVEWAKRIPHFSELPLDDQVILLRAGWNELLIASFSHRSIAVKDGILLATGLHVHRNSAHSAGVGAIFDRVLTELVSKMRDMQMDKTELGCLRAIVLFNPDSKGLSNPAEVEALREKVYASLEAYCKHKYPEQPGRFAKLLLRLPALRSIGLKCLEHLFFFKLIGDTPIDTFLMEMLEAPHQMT
Description: as §1, §2

| SMILES | induction of PARP cleavage together with TNFα, compared with Sulindac (ZR-75-1 cells) | tumor volume compared to control (MCF-7 breast tumor) | development of cancer in patient at elevated risk (cancer) | binding to Nur77 in cells by HPLC (Nur77) | binding to RAR in cells by HPLC (RARβ) | binding to RXRα in cells by HPLC (RXRα) |
| --- | --- | --- | --- | --- | --- | --- |
| CC1=C(CC(=O)O)c2cc(F)ccc2/C1=C\c1ccc(C(C)C)cc1 [K-80003, (Z)-2-(3-(4-Iso-propylbenzylidene)-6-fluoro-2-methyl-3H-inden-1-yl)acetic acid] | more effective than Sulindac | dose-dependent decrease in tumor volume | does not develop cancer | – | – | – |
| CSc1ccc(/C=C2/C(C)=C(CC(=O)O)c3cc(F)ccc32)cc1 [Sulindac, (Z)-2-(3-(4-(Methylthio)benzylidene)-6-fluoro-2-methyl-3H-inden-1-yl)acetic acid] | – | – | – | not other nuclear receptors such as RAR and Nur77 | not other nuclear receptors such as RAR and Nur77 | direct binding |
